Test results reported in US20150197492A1, “NOVEL INDENO[1,2-c]QUINOLIN-11-ONE DERIVATIVES, PREPARATION METHOD AND APPLICATION THEREOF” (National Defense Medical Center, priority 2014, published 2015).

What was measured:
Assay type in all cases: cell-based
[1] = system: 55 to 60 cancer cell lines; settings: 10 μM, 48 hours, all tested cell lines
[2] = system: CCRF-CEM; test: cells; settings: CCRF-CEM (Leukemia), 10 μM, 48 hours
[3] = system: MOLT-4; test: cells; settings: MOLT-4 (Leukemia), 10 μM, 48 hours
[4] = system: NCI-H322M; test: cells; settings: NCI-H322M (Non-Small Cell Lung Cancer), 10 μM, 48 hours
[5] = system: NCI-H522; test: cells; settings: NCI-H522 (Non-Small Cell Lung Cancer), 10 μM, 48 hours
[6] = system: HT29; test: cells; settings: HT29 (Colon Cancer), 10 μM, 48 hours
[7] = system: KM12; test: cells; settings: KM12 (Colon Cancer), 10 μM, 48 hours
[8] = system: SNB-19; test: cells; settings: SNB-19 (CNS Cancer), 10 μM, 48 hours
[9] = system: MALME-3M; test: cells; settings: MALME-3M (Melanoma), 10 μM, 48 hours
[10] = system: MDA-MB-435; test: cells; settings: MDA-MB-435 (Melanoma), 10 μM, 48 hours
[11] = system: SK-MEL-28; test: cells; settings: SK-MEL-28 (Melanoma), 10 μM, 48 hours
[12] = system: UACC-257; test: cells; settings: UACC-257 (Melanoma), 10 μM, 48 hours
[13] = system: UACC-62; test: cells; settings: UACC-62 (Melanoma), 10 μM, 48 hours
[14] = system: OVCAR-3; test: cells; settings: OVCAR-3 (Ovarian Cancer), 10 μM, 48 hours
[15] = system: OVCAR-5; test: cells; settings: OVCAR-5 (Ovarian Cancer), 10 μM, 48 hours
[16] = system: OVCAR-8; test: cells; settings: OVCAR-8 (Ovarian Cancer), 10 μM, 48 hours
[17] = system: 786-0; test: cells; settings: 786-0 (Renal Cancer), 10 μM, 48 hours
[18] = system: ACHN; test: cells; settings: ACHN (Renal Cancer), 10 μM, 48 hours
[19] = system: CAKI-1; test: cells; settings: CAKI-1 (Renal Cancer), 10 μM, 48 hours
[20] = system: SN12C; test: cells; settings: SN12C (Renal Cancer), 10 μM, 48 hours
[21] = system: PC-3; test: cells; settings: PC-3 (Prostate Cancer), 10 μM, 48 hours
[22] = system: DU-145; test: cells; settings: DU-145 (Prostate Cancer), 10 μM, 48 hours
[23] = system: HS 578T; test: cells; settings: HS 578T (Breast Cancer), 10 μM, 48 hours
[24] = system: BT-549; test: cells; settings: BT-549 (Breast Cancer), 10 μM, 48 hours
[25] = system: T-47D; test: cells; settings: T-47D (Breast Cancer), 10 μM, 48 hours
[26] = system: MDA-MB-468; test: cells; settings: MDA-MB-468 (Breast Cancer), 10 μM, 48 hours
[27] = system: human PC-3 cells; test: Sulforhodamine B (SRB) assay, cytotoxicity against PC-3 cells; settings: SRB assay, PC-3 cells
Procedure: Add 5% Fetal Bovine Serum (FBS) to 96-well plate and fix the cells with 10% TCA after 24 hours of incubation and add the compound (T0). Add DMSO and culture for another 48 hours and the cells are fixed in 0.4% (W/V), 10% TCA and SRB, and […]. Excess SRB is washed off by 1% acetic acid and cells stained with SRB are dissolved in 10 mmol/L Trizma base. The absorbance is measured at 515 nm. The treatment time is 0 (T0), control growth (C) and the increase of the compound (Tx) in the cells are shown below and are used to calculate the increase of the concentration of the compound in percentage. Growth inhibition (GI %) is calculated using the following formula 100−[(TX−T0)/(C−T0)]×100. The 50% growth inhibition concentration (IC50) is used to confirm the concentration of compound and thus results in 50% reduction of the treated cells which control the amount of total protein.
This part of experimental results are SRB assays measuring cytotoxicity of the 26 synthesized compounds against human PC-3 cells and are summarized in Table 1 and 2.

[28] = system: SR; test: cells; settings: SR (Leukemia), 10 μM, 48 hours
[29] = system: SF-295; test: cells; settings: SF-295 (CNS Cancer), 10 μM, 48 hours
[30] = system: OVCAR-4; test: cells; settings: OVCAR-4 (Ovarian Cancer), 10 μM, 48 hours

Row | SMILES | Mean (mean growth percentage of the tested cancer cell lines) [1] [%] | growth percentage [2] [%] | growth percentage [3] [%] | growth percentage [4] [%] | growth percentage [5] [%] | growth percentage [6] [%] | growth percentage [7] [%] | growth percentage [8] [%] | growth percentage [9] [%] | growth percentage [10] [%] | growth percentage [11] [%] | growth percentage [12] [%] | growth percentage [13] [%] | growth percentage [14] [%] | growth percentage [15] [%] | growth percentage [16] [%] | growth percentage [17] [%] | growth percentage [18] [%] | growth percentage [19] [%] | growth percentage [20] [%] | further results
1 | COc1nc2ccccc2c2c1-c1ccc(Cl)cc1C2=O [SJ-27, 6-Methoxy-9-chloro-11H-indeno[1,2-c]quinolin-11-one] | 96.23 | 89.25 | 110.33 | 99.80 | 95.89 | 111.60 | 98.35 | 96.35 | 107.54 | 100.31 | 106.24 | 98.20 | 74.08 | 111.89 | 96.81 | 98.75 | 103.51 | 90.83 | 90.65 | 89.48 | growth percentage [21]: 74.44%; growth percentage [22]: 121.06%; growth percentage [23]: 92.74%; growth percentage [24]: 92.95%; growth percentage [25]: 78.97%; growth percentage [26]: 99.51%
2 | COc1cccc(N2CCN(c3nc4ccccc4c4c3-c3ccc(Cl)cc3C4=O)CC2)c1 [SJ-20, 9-Chloro-6-(4-(3-methoxyphenyl)piperazin-1-yl)-11H-indeno[1,2-c]quinolin-11-one] | 92.15 | 93.78 | 95.46 | 91.93 | 79.75 | 95.93 | 105.95 | 105.27 | 92.79 | 100.75 | 103.93 | 93.79 | 86.44 | 104.27 | 98.22 | 83.98 | 81.67 | 93.51 | 86.59 | 88.17 | Toxicity (%) [27]: 0%; GI % (10 μM) [27]: 98.05%; growth percentage [28]: 95.05%; growth percentage [29]: 90.05%; growth percentage [30]: 87.08%; growth percentage [21]: 72.83%; growth percentage [22]: 98.98%; growth percentage [23]: 71.75%; growth percentage [24]: 101.57%; growth percentage [25]: 86.68%; growth percentage [26]: 101.04%
3 | O=C1c2cc(Cl)ccc2-c2c(N3CCN(c4ccccc4)CC3)nc3ccccc3c21 [SJ-16, 9-Chloro-6-(4-phenylpiperazin-1-yl)-11H-indeno[1,2-c]quinolin-11-one] | 87.29 | 93.52 | 98.13 | 98.63 | 80.10 | 82.40 | 98.34 | 88.40 | 100.05 | 99.55 | 104.82 | 98.40 | 87.17 | 98.07 | 88.56 | 75.82 | 81.41 | 68.58 | 80.23 | 87.90 | Toxicity (%) [27]: 0%; GI % (10 μM) [27]: 65.91%; growth percentage [28]: 95.93%; growth percentage [29]: 60.91%; growth percentage [30]: 90.32%; growth percentage [21]: 79.79%; growth percentage [22]: 102.96%; growth percentage [24]: 89.83%; growth percentage [25]: 75.93%; growth percentage [26]: 95.37%
4 | O=C1c2cc(Cl)ccc2-c2c(O)nc3ccccc3c21 [SJ-26, 6-Hydroxy-9-chloro-11H-indeno[1,2-c]quinolin-11-one] | 96.60 | 105.78 | 95.10 | 90.72 | 92.22 | 102.38 | 102.73 | 99.28 | 103.37 | 100.35 | 100.02 | 106.31 | 95.17 | 117.80 | 126.77 | 107.63 | 114.55 | 104.75 | 71.62 | 96.69 | growth percentage [28]: 77.02%; growth percentage [29]: 92.48%; growth percentage [30]: 80.74%; growth percentage [21]: 93.44%; growth percentage [22]: 111.80%; growth percentage [23]: 105.98%; growth percentage [24]: 120.08%; growth percentage [25]: 67.23%; growth percentage [26]: 80.08%
